Assay results: patent US10730882B2, “2-aminoquinazoline derivatives as P70S6 kinase inhibitors” (SENTINEL ONCOLOGY LIMITED, priority 2015, dated 2020)
Like-named read-outs stand apart in the source and are kept apart here.

Key:
[1] = target: p70S6K (h) (Homo sapiens (Human), UniProt P23443); assay: p70S6K (h) kinase assay (radiometric, [γ-33P-ATP]); type: biochemical; conditions: read-out: (a) p70S6K1 IC50
Description: (a) Determination of p70S6 Inhibitory Activity
The ability of compounds of the invention to inhibit P70S6 kinase may be determined using the protocol below.
20 mM MOPS, 1 mM EDTA, 0.01% Brij-35, 5% Glycerol, 0.1% b-mercaptoethanol, 1 mg/mL BSA
In a final reaction volume of 25 μL, p70S6K (h) (5-10 mU) is incubated with 8 mM MOPS pH 7.0, 0.2 mM EDTA, 100 μM KKRNRTLTV, 10 mM Mg acetate and [γ-33P-ATP](specific activity approx. 500 cpm/pmol, concentration as required). The reaction is initiated by the addition of the MgATP mix. After incubation for 40 minutes at room temperature, the reaction is stopped by the addition of 5 μL of a 3% phosphoric acid solution. 10 μL of the reaction mixture is then spotted onto a P30 filtermat and washed three times for 5 minutes in 75 mM phosphoric acid and once in methanol prior to drying and scintillation counting.

[2] = in vivo cassette mouse model: brain and plasma concentrations following oral dosing; conditions: male CD-1 mice, 2.5 mg/kg per compound; for Kp at 3 h: brain and plasma, read-out: (b) Brain:Plasma ratio at 3 hours
Description: (b) Evaluation of Brain and Plasma Concentrations in an In Vivo Cassette Mouse Model
The compounds of this invention were evaluated in an in vivo cassette mouse model to determine brain and plasma concentrations following oral dosing. This is an industry-standard and recognised means to assess brain penetration of small molecules (for recent literature article, refer to: in vitro permeability analysis, pharmacokinetic and brain distribution study in mice of imperatorin, isoimperatorin and cnidilin in Radix Angelicae Dahuricae, Fitoterapia, Volume 85, March 2013, Pages 144-153). It is also recognised that higher brain concentrations (and higher ratios of brain:plasma concentration) lead to greater exposure in the brain—this is clearly advantageous if the brain is the site of action.
For a single cassette study, male CD-1 mice were used (n=3 per timepoint, three timepoints: 1.0 hr, 3.0 hr and 8.0 hr).
5 compounds were dosed PO per cassette (dose level 2.5 mg/kg per compound, dose conc. 0.25 mg/ml, dose volume 10.0 ml/kg).
Formulation used to solubilize compounds: 10% DMSO/90% hydroxypropyl-β-cyclodextrin (20% w/v aqueous)
Sampling was terminal and plasma and brain matrices were generated. To prepare plasma samples, protein was precipitated using acetonitrile. To prepare brain samples, homogenisation and protein precipitation was performed with acetonitrile. Samples were analysed using HPLC-TOF MS using electrospray ionisation.
The brain and plasma concentrations and brain-plasma ratios observed for the compounds tested are set out in the table below.

[3] = tested on: MDA-MB-231 cells; assay: in vivo model of triple negative breast cancer (TNBC): tumour initiation and metastasis; design: species or system female athymic nude mice
Description: (c) Evaluation of Efficacy of Compounds in Counter-Acting Tumour Initiation and Metastasis in an In Vivo Model of Triple Negative Breast Cancer (TNBC)
It is known that S6K1 has a crucial role in the recurrence of TNBC cancers following surgery, mainly through the activity of S6K1 in promoting survival of cancer cells in the host via phosphorylation and activation of the anti-apoptotic protein Bcl2 and of Gli1 (Belletti 2014). In addition, S6K1 promotes metastasis of TNBC cells (Akar 2010, Hung 2014).
In order to test the efficacy of an inhibitor of S6K1 in an in vivo model of tumour initiation and metastasis, the following experiment was established:
A total of 22 female athymic nude mice (Hsd:Athymic Nude-Foxn1^nu) were purchased from Harlan (UK) and acclimatised for 7 days prior to study commencement. Animals were housed in IVC cages (5 per cage) with individual mice identified by ear punch. All animals were allowed free access to a standard certified commercial diet and sanitised water during the study. The holding room was maintained under standard conditions: 20-24° C., 40-70% humidity and a 12 h light/dark cycle.
On day −1, animals were randomly assigned to treatment groups as indicated in the table below, and drug treatment commenced. On day 0, MDA-MB-231 cells (1×10^6 in matrigel) were implanted into the second mammary fat pad.
The dosing route was PO and the formulation was as follows: 10% DMSO/90% hydroxypropyl-β-cyclodextrin (20% w/v aqueous).
During the experiment, the following outcome measures were assessed:
(1) Time to palpation of tumour (latency) (2) tumour volume (3) tumour and organ weights as a measure of metastasis (4) visual appearance of metastatic nodules in the lungs.
At necroscopy the lungs of the vehicle and treated animals were examined for presence of metastatic nodules: […]

[4] = tested on: FXS mice (Fmr1 KO); assay: audiogenic seizure assay (AGS), in vivo model of Fragile X Syndrome
Description: (d) Evaluation of Compounds in the Audiogenic Seizure Assay, an In Vivo Model of Fragile X Syndrome (FXS)
Seizures occur in conjunction with FXS and autism in up to one-quarter of children with these disorders (Berry-Kravis E (2002) Epilepsy in fragile X syndrome. Dev. Med. Child Neurol. 44(11):724-728). […] The audiogenic seizure assay (AGS) is a well-documented mouse model of FXS (Audiogenic seizures susceptibility in transgenic mice with fragile X syndrome, Epilepsia. 2000 January; 41(1):19-23). In such a model it is possible to dose compounds to observe effects on susceptibility of the mice to audiogenic seizures. The following AGS experiment was set up to test the efficacy of compounds of this application:
The following experiment design was used:
Strain of FXS mouse used: FVB background
Vehicle used: 10% DMSO/90% hydroxypropyl-β-cyclodextrin (20% w/v aqueous)
Animals were assessed in AGS following 7 consecutive days of dosing.
The experimental chamber consisted of a plastic cage of dimensions 25×25×47 cm in which a doorbell (Electrical bell Heath Zenith, model 172C-A) had been mounted on the cage roof.
Mice were taken from their housing room one by one and transferred into the experimental chamber and allowed to explore the novel environment (basal noise […]) for a period of 30 seconds after which point the bell was rung (124 dB) for a period of 60 seconds.
The resulting motor responses were classified using a scale modified from the one originally described by Jobe et al. (1973): no response (NR: pause or continuous exploration), wild running (WR), seizure (S) or respiratory arrest and/or death (RA). The motor response rate is defined as the percentage of animals per group responding to the stimulus.

[5] = brain, read-out: (b) Brain conc. at 3 hours
[6] = plasma, read-out: (b) Plasma conc. at 3 hours
[7] = mono-HCl salt, 100 mg/kg p.o. BID, 21 days, compared to control
[8] = FXS (Fmr1 KO) mice, n=10, 50 mg/kg QD x 7 PO, mono-HCl salt, bell 124 dB for 60 seconds
[9] = FXS mice, FVB background, following 7 consecutive days of dosing

Sequence of p70S6K (h) (P23443 whole entry): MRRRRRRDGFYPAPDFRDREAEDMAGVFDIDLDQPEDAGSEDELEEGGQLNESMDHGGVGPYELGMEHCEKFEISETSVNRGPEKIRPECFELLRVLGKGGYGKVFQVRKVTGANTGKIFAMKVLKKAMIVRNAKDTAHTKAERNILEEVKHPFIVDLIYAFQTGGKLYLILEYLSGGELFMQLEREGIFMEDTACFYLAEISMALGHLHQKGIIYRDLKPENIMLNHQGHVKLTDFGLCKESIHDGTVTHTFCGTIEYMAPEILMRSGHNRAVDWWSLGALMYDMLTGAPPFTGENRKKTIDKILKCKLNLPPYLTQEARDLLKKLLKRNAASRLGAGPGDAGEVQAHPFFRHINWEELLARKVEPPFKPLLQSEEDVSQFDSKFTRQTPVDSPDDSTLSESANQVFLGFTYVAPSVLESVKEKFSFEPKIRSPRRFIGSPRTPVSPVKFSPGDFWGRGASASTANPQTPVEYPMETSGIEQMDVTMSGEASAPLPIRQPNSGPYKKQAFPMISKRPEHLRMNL

Row | Compound | IC50 [1] | Kp at 3 h [2] | concentration at 3 h [2, 5] | concentration at 3 h [2, 6] | Mean no. of lung nodules per animal ([3]; 100 mg/kg BID x 21, lungs examined at necroscopy, mono-HCl salt) | metastatic burden in the lungs ([3]; at necroscopy, spontaneous metastasis from a TNBC primary tumour) | tumour weight ([3]; day 21, mono-HCl salt, 100 mg/kg p.o. BID, compared to vehicle) | weight of liver ([3]; day 21, mono-HCl salt, 100 mg/kg p.o. BID, compared to vehicle treated group) | rate of incidence of tumour [3, 7] | time until appearance (palpation) of tumour [3, 7] | tumour volume [3, 7] | NR (no response: pause or continuous exploration), number of animals [4, 8] | RA (respiratory arrest and/or death), number of animals [4, 8] | S (seizure), number of animals [4, 8] | WR (wild running), number of animals [4, 8] | incidence of audiogenic seizures [4, 9] | severity of response (audiogenic seizure) [4, 9]
1 | C[C@@H](Nc1ncc2cc(-c3ncnc4[nH]ncc34)ccc2n1)c1ccccc1 [Example 1, ((R)-1-Phenyl-ethyl)-[6-(1H-pyrazolo[3,4-d]pyrimidin-4-yl)-quinazolin-2-yl]-amine] | 13 nM | 2.7 | 1600 nM | 580 nM | 0 | effective in reducing the metastatic burden in the lungs | weighed significantly less | reduction in weight of liver | decreases the rate of incidence | delays time until appearance (palpation) of tumour | significant reduction in volume of tumours | 9 | 0 | 0 | 1 | reduced | reduced
2 | C[C@@H](Nc1ncc2cc(-c3ncnc4[nH]ncc34)ccc2n1)c1ccccc1F [Example 28, [(R)-1-(2-Fluoro-phenyl)-ethyl]-[6-(1H-pyrazolo[3,4-d]pyrimidin-4-yl)-quinazolin-2-yl]-amine] | 15 nM | 2.6 | 1070 nM | 420 nM |  |  |  |  |  |  |  |  |  |  |  |  | 
3 | C[C@@H](Nc1ncc2cc(-c3ncnc4[nH]ncc34)ccc2n1)c1ccc(F)c(F)c1 [Example 19, [(R)-1-(3,4-Difluoro-phenyl)-ethyl]-[6-(1H-pyrazolo[3,4-d]pyrimidin-4-yl)-quinazolin-2-yl]-amine] | 10 nM | 4 | 2420 nM | 600 nM |  |  |  |  |  |  |  |  |  |  |  |  | 
